Laboratory results taken from ChEMBL document CHEMBL1135386, “Development of potent and selective dipeptidyl peptidase II inhibitors” (Bioorg Med Chem Lett, 2002).

Experiments:
[1] = biological target: T1, Dipeptidyl peptidase 4 (Homo sapiens, UniProt P27487)
[2] = biological target: T1, Dipeptidyl peptidase 4; remark: listed apart in the source
[3] = biological target: T2, Dipeptidyl peptidase 2 (Homo sapiens, UniProt Q9UHL4)
[4] = biological target: Dipeptidyl peptidase II and dipeptidyl peptidase IV (DPP2 and DPP4) (Homo sapiens) (UniProt P27487+Q9UHL4); experiment: Selectivity index against Dipeptidyl Peptidase IV and Dipeptidyl Peptidase II inhibitory activities; type: protein assay
[5] = biological target: T2, Dipeptidyl peptidase 2; experiment: Inhibitory activity against Dipeptidyl Peptidase II

T1 sequence (P27487 whole entry): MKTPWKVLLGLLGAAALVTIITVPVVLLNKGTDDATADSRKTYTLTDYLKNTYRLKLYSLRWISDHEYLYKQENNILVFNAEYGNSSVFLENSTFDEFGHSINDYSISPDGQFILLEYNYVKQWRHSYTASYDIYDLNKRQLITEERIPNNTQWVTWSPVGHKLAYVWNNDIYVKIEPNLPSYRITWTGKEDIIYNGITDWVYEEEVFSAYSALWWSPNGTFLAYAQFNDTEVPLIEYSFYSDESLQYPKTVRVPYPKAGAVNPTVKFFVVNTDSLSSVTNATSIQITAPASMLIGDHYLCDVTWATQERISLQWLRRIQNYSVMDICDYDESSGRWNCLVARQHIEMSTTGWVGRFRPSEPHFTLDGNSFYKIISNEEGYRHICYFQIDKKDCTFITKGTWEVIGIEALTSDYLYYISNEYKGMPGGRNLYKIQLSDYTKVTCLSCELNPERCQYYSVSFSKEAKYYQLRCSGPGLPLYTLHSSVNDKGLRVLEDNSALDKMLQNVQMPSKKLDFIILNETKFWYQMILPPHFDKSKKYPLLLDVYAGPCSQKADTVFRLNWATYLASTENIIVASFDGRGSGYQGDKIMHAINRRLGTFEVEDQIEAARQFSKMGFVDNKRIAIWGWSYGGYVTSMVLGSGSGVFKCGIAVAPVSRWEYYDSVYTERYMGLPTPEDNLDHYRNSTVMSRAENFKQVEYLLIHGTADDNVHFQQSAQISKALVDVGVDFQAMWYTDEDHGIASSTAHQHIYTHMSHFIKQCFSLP

Row | SMILES | IC50 [1] [µM] | further results
1 | NC(Cc1c[nH]cn1)C(=O)N1CCCCC1 (configuration not stated) | 213 | 
2 | N[C@@H](CC1CCCCC1)C(=O)N1CCCCC1 | 217 | 
3 | S=C(C1CCCN1)N1CCCC1 (configuration not stated) | > 500 | 
4 | NC(Cc1ccc(O)cc1)C(=O)N1CCCC1 (configuration not stated) | 14 | 
5 | C[C@H](N)C(=O)N1CCCC1 | 41 | 
6 | NC(Cc1ccccc1)C(=O)N1CCCC1 (configuration not stated) | 21 | 
7 | NCC(=O)N1CCCC1 | > 1000 | 
8 | NC(CO)C(=O)N1CCCC1 (configuration not stated) | 190 | 
9 | NCCCCC(N)C(=O)N1CCCC1 (configuration not stated) | 39 | 
10 | NC(=O)CC(N)C(=O)N1CCCC1 (configuration not stated) | 188 | 
11 | NC(Cc1c[nH]cn1)C(=O)N1CCCC1 (configuration not stated) | 23.2 | 
12 | C[C@H](N)C(=S)N1CCCC1 |  | Ki [2]: 47.6 µM; Ki [3]: 1.43 µM
13 | NCCCC(N)C(=O)N1CCCCC1 (configuration not stated) | > 500 | SI [4]: > 1110
14 | NCCCCC(NC(=O)OCc1ccccc1)C(=O)N1CCCCC1 (configuration not stated) | 135 | SI [4]: 64
15 | CCC(C)C(N)C(=O)N1CCCCC1 (configuration not stated) | 67 | 
16 | NCC[C@H](N)C(=O)N1CCCCC1 | > 1000 | SI [4]: > 7590
17 | NCCCCC(N)C(=O)N1CCCCC1 (configuration not stated) | 247 | SI [4]: 154
18 | NC[C@H](N)C(=O)N1CCCCC1 | > 1000 | 
19 | C[C@H](N)C(=S)N1CCSC1 |  | Ki [2]: 7.88 µM; Ki [3]: 0.277 µM
20 | C[C@H](N)C(=O)N1CCC[C@H]1C#N |  | IC50 [5]: 110 µM
21 | N[C@@H](CC(=O)O)C(=O)N1CCCC1 | 122 | 
